From US12691070B2, “Cationic lipids and preparation method thereof” (RiboX Therapeutics HK Limited, priority 2023, dated 2026)

Tests used:
[1] = LNP size and polydispersity index (PDI) by dynamic light scattering; type: physicochemical; details: for Size: in nm (unit assumed)
Procedure, shortened: (§1)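 LNPs of ionizable lipid/DSPC/cholesterol/DMG-PEG 2000 (50:10:38.5:1.5) made by microfluidic mixing of luciferase circRNA or mRNA in pH 4.5 acetate with lipids in ethanol (3:1, 12 ml/min), ionizable lipid:nucleotide 15 or 6, then dialyzed against PBS. Size, PDI (DLS) and zeta potential on Zetasizer; encapsulation by Ribogreen ± Triton X-100.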

[2] = LNP zeta potential (Zetasizer); type: physicochemical
Procedure, shortened: as §1

[3] = RNA encapsulation efficacy by Quant-IT Ribogreen kit; type: physicochemical; details: for Encapsulation Efficiency %: LNP with cirRNA (SEQ ID NO: 1); for Encapsulation Efficiency: LNP with mRNA (SEQ ID NO: 2)
Procedure, shortened: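 Ribogreen read-out: encapsulation = 100% − (signal of intact RNA-LNPs / signal with Triton X-100). Particles: ionizable lipid:DSPC:Chol:DMG-PEG2000 50:10:38.5:1.5, ionizable lipid:ribonucleotide 15 or 6, final lipid 1.5–6 mM, PBS-dialyzed.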

Hep G2 cells [4] = experiment: In vitro expression of firefly-luciferase, Hep G2; type: cell-based
Procedure, shortened: (§2)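 Both cell lines receive RNA-LNPs carrying firefly-luciferase RNA at 100 ng/mL. Lysis follows washing at 72 h post-transfection, and luciferase activity is then quantified on a luminometer using a commercial luciferase assay reagent.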

RAW 264.7 cells [5] = experiment: In vitro expression of firefly-luciferase, RAW 264.7; type: cell-based
Procedure, shortened: as §2

Hep G2 cells [6] = experiment: In vitro toxicity (CellTiter-Glo cell viability), Hep G2; type: cell-based;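 further: percent of untreated cells luminescence signal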
Procedure, shortened: (§3)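 First, cells receive RNA-LNPs at 1 μg/mL by transfection. After 72 hours, CellTiter-Glo reagent is added per kit protocol. Luminescence is then read and converted to cell viability.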

RAW 264.7 cells [7] = experiment: In vitro toxicity (CellTiter-Glo cell viability), RAW 264.7; type: cell-based;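 further: percent of untreated cells luminescence signal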
Procedure, shortened: as §3

BALB/C mice [8] = experiment: In vivo expression, whole-body luminescence (IVIS)
Protocol: 6-8 week old, female BALB/C mice were injected with 0.05 mg*kg-1 of RNA-LNPs encoding for firefly-luciferase by intravenous injection. At 6 hours post injection, animals were intraperitoneally injected with 15 mg/ml of Luciferin substrate and whole-body luminescence was determined by a bioluminescent in vivo imaging system (IVIS).

MCP-I = MCP-I cytokine elevation in serum; type: in vivo; details: cirRNA (SEQ ID NO: 1) LNPs, mice
Protocol: 6-8 week old, female BALB/C mice were injected with 0.5 mg*kg-1 of RNA LNPs by intravenous injection. At 2 and 24 hours post injection, animals were bled and sera concentrations of MCP-I were determined by an immunoassay (Luminex).

[9] = system: Alanine Aminotransferase (ALT); experiment: Liver enzyme elevation in serum, ALT; type: in vivo; details: cirRNA (SEQ ID NO: 1) LNPs, BALB/C mice, intravenous 0.5 MPK
Protocol: (§4) 6-8 week old, female BALB/C mice were injected with 0.5 mg*kg-1 of RNA LNPs by intravenous injection. At 2 and 24 hours post injection, animals were bled and sera concentrations of Alanine Aminotransferase (ALT) and Aspartate Aminotransferase (AST) were determined by a blood chemistry analyzer.

[10] = system: Aspartate Aminotransferase (AST); experiment: Liver enzyme elevation in serum, AST; type: in vivo; details: cirRNA (SEQ ID NO: 1) LNPs, BALB/C mice, intravenous 0.5 MPK
Protocol: as §4

BALB/C mice [11] = experiment: Local tolerance determination by footpad injection; type: in vivo; details: cirRNA (SEQ ID NO: 1) LNP, 0.175 mg*kg-1 subcutaneous into the footpad, 24 hours post minus prior
Protocol: 6-8 week old, female BALB/C mice were injected with 0.175 mg*kg-1 RNA LNPs by subcutaneous injection into the footpad. Prior to, and 24 hours post injections, injected footpad thickness was determined by a caliper.

[12] = cirRNA (SEQ ID NO: 1) LNPs, firefly-luciferase luminescence, Hep G2 cells
[13] = mRNA (SEQ ID NO: 2) LNP, 100 ng/mL, 72 hours post transfection, luciferase activity
[14] = cirRNA (SEQ ID NO: 1) LNPs, firefly-luciferase luminescence, RAW 264.7 cells
[15] = cirRNA (SEQ ID NO: 1) LNPs, Hep G2 cells
[16] = mRNA (SEQ ID NO: 2) LNP, 1 μg/mL, 72 hours post transfection
[17] = cirRNA (SEQ ID NO: 1) LNPs, RAW 264.7 cells
[18] = cirRNA (SEQ ID NO: 1) LNPs, BALB/C mice
[19] = mRNA (SEQ ID NO: 2) LNP, 0.05 mg*kg-1 intravenous, 6 hours post injection

PDI ([1]; LNP with cirRNA (SEQ ID NO: 1))	Size ([1]; LNP with cirRNA (SEQ ID NO: 1))	PDI ([1]; LNP with mRNA (SEQ ID NO: 2))	Size ([1]; LNP with mRNA (SEQ ID NO: 2))	Zeta (mV) ([2]; LNP with cirRNA (SEQ ID NO: 1))	Zeta (mV) ([2]; LNP with mRNA (SEQ ID NO: 2))	Encapsulation Efficiency % [3] [%]	Encapsulation Efficiency [3] [%]	MCP-I in Sera 2 hours After 0.5 MPK Injection (MCP-I) [pg/mL]	MCP-I in Sera 24 hours After 0.5 MPK Injection (MCP-I) [pg/mL]	Compound	In vitro Expression HepG2 (Hep G2 cells [4]; [12])	In vitro Expression HepG2 (Hep G2 cells [4]; [13])	In vitro Expression RAW (RAW 264.7 cells [5]; [14])	In vitro Expression RAW (RAW 264.7 cells [5]; [13])	In vitro Viability HepG2 (Hep G2 cells [6]; [15]) [%]	In vitro Viability HepG2 (Hep G2 cells [6]; [16]) [%]	In vitro Viability RAW (RAW 264.7 cells [7]; [17]) [%]	In vitro Viability RAW (RAW 264.7 cells [7]; [16]) [%]	In vivo Expression (Whole Body) (BALB/C mice [8]; [18])	In vivo Expression (Whole Body) (BALB/C mice [8]; [19])	other results
0.13	91.13	0.1903	70.28	1.59	13.66	97	89	8335.00	93.14	CCCCC/C=C\C/C=C\CCCCCCCCN(CCCCCC(=O)OCC(CCCCCCCC)CCCCCCCCCC)CCOC(=O)NCCN(C)C (centres unmarked) [Lipid 75, 2-octyldodecyl 2-methyl-10-((9Z,12Z)-octadeca-9,12-dien-1-yl)-6-oxo-7-oxa-2,5,10-triazahexadecan-16-oate]	1.94E+06	9.23E+06	2.08E+06	2.18E+06	85	95	75	96	9.85E+08	4.22E+08	ALT in Sera (IU/L) 2 hours After 0.5 MPK Injection [9]: 111.37 IU/L; ALT in Sera (IU/L) 24 hours After 0.5 MPK Injection [9]: 48.97 IU/L; AST in Sera (IU/L) 2 hours After 0.5 MPK Injection [10]: 279.87 IU/L; AST in Sera (IU/L) 24 hours After 0.5 MPK Injection [10]: 94.83 IU/L; Footpad Thickness (24 h−0 h, mm) (BALB/C mice [11]): 0.85 mm
0.06	67.68	0.06127	65.54	1.34	7.6	87	88	153.05	33.08	CCCCC/C=C\C/C=C\CCCCCCCCN(CCCCCC(=O)OCCCCCCCCCCC)CCOC(=O)NCc1ncc[nH]1 [Lipid 90, undecyl 6-((2-((((1H-imidazol-2-yl)methyl)carbamoyl)oxy)ethyl)((9Z,12Z)-octadeca-9,12-dien-1-yl)amino)hexanoate]	1.27E+05	2.16E+05	8.50E+04	1.21E+05	95	85	24	96	8.80E+07	2.73E+07	ALT in Sera (IU/L) 2 hours After 0.5 MPK Injection [9]: 40.57 IU/L; ALT in Sera (IU/L) 24 hours After 0.5 MPK Injection [9]: 37.87 IU/L; AST in Sera (IU/L) 2 hours After 0.5 MPK Injection [10]: 77.50 IU/L; AST in Sera (IU/L) 24 hours After 0.5 MPK Injection [10]: 64.70 IU/L; Footpad Thickness (24 h−0 h, mm) (BALB/C mice [11]): 0.20 mm

Further lines, the molecule ahead of its results:

Compound	PDI ([1]; LNP with cirRNA (SEQ ID NO: 1))	Size ([1]; LNP with cirRNA (SEQ ID NO: 1))	PDI ([1]; LNP with mRNA (SEQ ID NO: 2))	Size ([1]; LNP with mRNA (SEQ ID NO: 2))	Zeta (mV) ([2]; LNP with cirRNA (SEQ ID NO: 1))	Zeta (mV) ([2]; LNP with mRNA (SEQ ID NO: 2))	Encapsulation Efficiency % [3] [%]	Encapsulation Efficiency [3] [%]	MCP-I in Sera 2 hours After 0.5 MPK Injection (MCP-I) [pg/mL]	MCP-I in Sera 24 hours After 0.5 MPK Injection (MCP-I) [pg/mL]	In vitro Expression HepG2 (Hep G2 cells [4]; [12])	In vitro Expression HepG2 (Hep G2 cells [4]; [13])	In vitro Expression RAW (RAW 264.7 cells [5]; [14])	In vitro Expression RAW (RAW 264.7 cells [5]; [13])	In vitro Viability HepG2 (Hep G2 cells [6]; [15]) [%]	In vitro Viability HepG2 (Hep G2 cells [6]; [16]) [%]	In vitro Viability RAW (RAW 264.7 cells [7]; [17]) [%]	In vitro Viability RAW (RAW 264.7 cells [7]; [16]) [%]	In vivo Expression (Whole Body) (BALB/C mice [8]; [18])	In vivo Expression (Whole Body) (BALB/C mice [8]; [19])	other results
CCCCC/C=C\C/C=C\CCCCCCCCN(CCCCCCCC(=O)OC(CCCCCCCC)CCCCCCCC)CCOC(=O)NCCN1CCCCC1 [Lipid 127, heptadecan-9-yl 8-(((9Z,12Z)-octadeca-9,12-dien-1-yl)(2-(((2-(piperidin-1-yl)ethyl)carbamoyl)oxy)ethyl)amino)octanoate]	0.04	71.42	0.1822	57.31	−3.13	−1.439	95	87	301.91	128.65	2.14E+06	1.75E+06	4.87E+06	5.53E+05	99	100	76	109	1.14E+09	8.69E+07	ALT in Sera (IU/L) 2 hours After 0.5 MPK Injection [9]: 74.17 IU/L; ALT in Sera (IU/L) 24 hours After 0.5 MPK Injection [9]: 54.90 IU/L; AST in Sera (IU/L) 2 hours After 0.5 MPK Injection [10]: 161.17 IU/L; AST in Sera (IU/L) 24 hours After 0.5 MPK Injection [10]: 91.53 IU/L; Footpad Thickness (24 h−0 h, mm) (BALB/C mice [11]): 0.94 mm
CCCCC/C=C\C/C=C\CCCCCCCCN(CCCCCCCC(=O)OC(CCCCCCCC)CCCCCCCC)CCOC(=O)NCCN1CCCC1 [Lipid 128, heptadecan-9-yl 8-(((9Z,12Z)-octadeca-9,12-dien-1-yl)(2-(((2-(pyrrolidin-1-yl)ethyl)carbamoyl)oxy)ethyl)amino)octanoate]	0.1	93.54	0.1021	75.38	0.282	6.141	94	91	6355.24	318.11	4.01E+06	2.16E+07	5.15E+06	1.72E+06	103	94	59	92	5.46E+08	6.98E+08	ALT in Sera (IU/L) 2 hours After 0.5 MPK Injection [9]: 58.17 IU/L; ALT in Sera (IU/L) 24 hours After 0.5 MPK Injection [9]: 56.00 IU/L; AST in Sera (IU/L) 2 hours After 0.5 MPK Injection [10]: 195.53 IU/L; AST in Sera (IU/L) 24 hours After 0.5 MPK Injection [10]: 131.30 IU/L; Footpad Thickness (24 h−0 h, mm) (BALB/C mice [11]): 0.98 mm
CCCCC/C=C\C/C=C\CCCCCCCCN(CCCCCCCC(=O)OC(CCCCCCCC)CCCCCCCC)CCOC(=O)NCCN(C)C [Lipid 129, heptadecan-9-yl 2-methyl-10-((9Z,12Z)-octadeca-9,12-dien-1-yl)-6-oxo-7-oxa-2,5,10-triazaoctadecan-18-oate]	0.08	88.9	0.1768	55.55	0.417	0.5475	96	90	3830.40	272.54	8.56E+06	7.03E+06	8.78E+06	1.11E+06	79	100	7	97	1.69E+09	1.42E+08	ALT in Sera (IU/L) 2 hours After 0.5 MPK Injection [9]: 64.50 IU/L; ALT in Sera (IU/L) 24 hours After 0.5 MPK Injection [9]: 67.87 IU/L; AST in Sera (IU/L) 2 hours After 0.5 MPK Injection [10]: 188.97 IU/L; AST in Sera (IU/L) 24 hours After 0.5 MPK Injection [10]: 112.03 IU/L; Footpad Thickness (24 h−0 h, mm) (BALB/C mice [11]): 1.09 mm
